This note sets out measurements from patent publication US9709486B2, “Method of dynamic spectroscopy under physiological conditions” (INOVIEM SCIENTIFIC, priority 2012, dated 2017).

For assay [1], the system named is crude membrane proteins from each patient's PBMC. Kind of assay: Dynamic NIR spectroscopy of crude PBMC membrane proteins of IBD patients in absence and presence of infliximab. The settings on record: infliximab 10e-6M, samples of patients responding to infliximab, 850-1450 nm, FIG. 17. Also on record: species or system human. The procedure: All the patients have a treatment: infliximab (Remicad®). infliximab is an anti-TNFalpha. 50 patients (women=16, men=34) with an average age of 43±8 year seeking medical assistance at Erlangen hospital day-care unit are taking part to the study. Patient's whole blood is collected using sodium citrate vacutainer tubes (5-10 ml/patient). Samples are blinded.
Peripheral blood mononuclear cells (PBMCs) are separated and isolated on ficoll gradient from blood samples, and then frozen. Crude PBMC membranes are prepared in physiological conditions without addition of any protease inhibitor or anti-phosphatase or lyses buffer. PBMC samples were subjected to three fast deep freezing (liquid nitrogen, slow thaw at 4° C., cycle. Determination of protein concentration: total protein concentration was determined using BCA assay (BCA Protein Assay Reagent, bicinchoninic acid). […]
One variable is analyzed in presence and in absence of infliximab: Compare Individual Macromolecular Volume (INV), that is defined as the total macromolecular spectral change from −37° C. to 37° C., due to the macromolecular conformational changes in absence and presence of a drug, expressed as change in absorbance as a function of wavelength and temperature. […]
Results are analyzed based on their spectral fingerprints going from −37° C. to 37° C. and compared to identify responders and non-responders patients.

The subject of assay [2] is rat hypothalamus extracts. In words: Dynamic NIR spectroscopy of rat hypothalamus extracts in presence of bithionol. The settings on record: FIG. 11. An excerpt:
Sample buffer constituted the blank.

In the case of infliximab, the “Individual Macromolecular Volume (INV), total macromolecular spectral change from −37° C. to 37° C.” value in assay [1] is “increases unanimously”.

Regarding `Oc1c(Cl)cc(Cl)cc1Sc1cc(Cl)cc(Cl)c1O` [bithionol], the “effect on protein assemblies / protein conformation (water molecules spectra in NIR wavelength)” value in assay [2] (1 μM test molecule, extract 10^−6 mg/ml, −37° C. to 37° C.) is “disturbs the protein assemblies”. Also, the “reversibility of induced conformation changes” value in assay [2] (1 μM, visible in low temperature (most at −37° C.)) is “reversible as the temperature rises”.
